According to patent US20060035813A1, “Methods and formulations comprising agonists and antagonists of nuclear hormone receptors” (priority 2002, published 2006):
Entries after “also recorded” stand apart in the source; their conditions may differ.

What was measured:
[1] = test system: tyrosine aminotransferase (TAT) in HTC cells; assay type: cell-based, rat
[2] = molecular target: T1, glucocorticoid receptor (GR) (Rattus norvegicus, UniProt P06536); assay type: cell-based
T1 construct: expressed in transfected cells; host or cells: Cos7
T1 sequence (P06536 1-795): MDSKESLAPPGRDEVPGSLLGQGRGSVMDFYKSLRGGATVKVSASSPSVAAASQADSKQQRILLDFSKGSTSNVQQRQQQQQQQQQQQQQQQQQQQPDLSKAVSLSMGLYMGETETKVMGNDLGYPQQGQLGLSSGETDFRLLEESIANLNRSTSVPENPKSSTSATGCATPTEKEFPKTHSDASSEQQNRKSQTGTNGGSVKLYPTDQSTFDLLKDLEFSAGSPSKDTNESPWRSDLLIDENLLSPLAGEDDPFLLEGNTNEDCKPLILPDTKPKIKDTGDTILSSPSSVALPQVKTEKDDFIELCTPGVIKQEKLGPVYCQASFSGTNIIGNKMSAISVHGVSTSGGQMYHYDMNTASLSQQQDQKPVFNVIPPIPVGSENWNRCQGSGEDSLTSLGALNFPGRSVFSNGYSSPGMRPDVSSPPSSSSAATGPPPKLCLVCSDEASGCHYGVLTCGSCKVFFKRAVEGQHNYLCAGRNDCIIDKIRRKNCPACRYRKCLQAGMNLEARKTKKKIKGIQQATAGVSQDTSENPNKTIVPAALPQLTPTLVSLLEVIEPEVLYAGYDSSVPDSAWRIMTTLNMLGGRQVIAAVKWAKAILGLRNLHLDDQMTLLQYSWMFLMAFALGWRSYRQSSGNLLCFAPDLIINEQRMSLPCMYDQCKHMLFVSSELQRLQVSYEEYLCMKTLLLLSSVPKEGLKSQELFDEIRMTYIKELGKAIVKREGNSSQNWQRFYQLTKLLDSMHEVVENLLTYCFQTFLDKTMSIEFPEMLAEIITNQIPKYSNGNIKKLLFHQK

[3] = test system: constitutive luciferase vector, pGL3 control; assay type: cell-based
[4] = molecular target: T1, glucocorticoid receptor (GR); assay type: binding
J774.1 cells = assay type: cell-based
Raw264.7 cells = assay type: cell-based
[5] = molecular target: T2, progesterone receptor B (PR-B) (Homo sapiens, UniProt P06401); details: 100 nM progesterone; 2 ng/ml LF+500 ng/ml PA; RU486 up to 1 μM; pLTR luc
T2 sequence (P06401 1-933): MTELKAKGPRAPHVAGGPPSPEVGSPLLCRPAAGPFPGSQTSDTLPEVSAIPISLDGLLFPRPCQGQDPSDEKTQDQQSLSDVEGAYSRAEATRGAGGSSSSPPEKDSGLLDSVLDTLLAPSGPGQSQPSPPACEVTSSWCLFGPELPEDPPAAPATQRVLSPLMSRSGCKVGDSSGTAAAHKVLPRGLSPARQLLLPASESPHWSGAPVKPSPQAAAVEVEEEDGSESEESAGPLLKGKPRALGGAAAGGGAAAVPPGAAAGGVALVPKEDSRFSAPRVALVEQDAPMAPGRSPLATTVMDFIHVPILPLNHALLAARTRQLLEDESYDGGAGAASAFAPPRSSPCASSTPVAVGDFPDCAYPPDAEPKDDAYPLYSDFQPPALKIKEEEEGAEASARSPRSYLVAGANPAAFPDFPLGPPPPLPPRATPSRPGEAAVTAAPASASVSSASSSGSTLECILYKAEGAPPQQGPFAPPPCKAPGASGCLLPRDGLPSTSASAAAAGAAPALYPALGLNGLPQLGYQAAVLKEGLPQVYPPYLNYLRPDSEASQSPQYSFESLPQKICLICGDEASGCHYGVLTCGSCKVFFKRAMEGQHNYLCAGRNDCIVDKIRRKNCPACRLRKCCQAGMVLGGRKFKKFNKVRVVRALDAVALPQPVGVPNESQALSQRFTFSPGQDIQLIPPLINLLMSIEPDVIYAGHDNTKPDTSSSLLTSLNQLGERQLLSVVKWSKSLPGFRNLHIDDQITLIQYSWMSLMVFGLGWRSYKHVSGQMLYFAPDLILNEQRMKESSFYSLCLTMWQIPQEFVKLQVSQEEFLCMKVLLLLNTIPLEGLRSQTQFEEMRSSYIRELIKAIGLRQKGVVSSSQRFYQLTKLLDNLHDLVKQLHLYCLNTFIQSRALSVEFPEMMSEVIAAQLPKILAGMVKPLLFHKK

## C[C@@H]1C[C@H]2[C@@H]3CCC4=CC(=O)C=C[C@]4(C)[C@@]3(F)[C@@H](O)C[C@]2(C)[C@@]1(O)C(=O)CO [Dex, dexamethasone]
[1]
  Dex concentration as low as which TAT is induced: 10 nM
  induction of TAT activity: approximately 10 fold

## COc1cccc(-c2cc(=O)c3ccccc3o2)c1N [PD98059]
[2]
  GR/GRE-specific effect of MAPK pathway inhibitor on Dex-induced GR transactivation: does not affect GR transactivation; also recorded: no GRE specific effect; also recorded: did not alter GR repression; also recorded: does not have any GR specific effect
  effect on GRE-luciferase activity: decreased luciferase activity
[3]
  effect on constitutive luciferase (pGL3 control): decreased luciferase activity; also recorded: non-specific suppressive effect on luciferase
[1]
  effect of MAPK inhibitor on dexamethasone-induced TAT activity: repress dexamethasone-induced TAT activity

## CC#C[C@]1(O)CC[C@H]2[C@@H]3CCC4=CC(=O)CCC4=C3[C@@H](c3ccc(N(C)C)cc3)C[C@@]21C [RU 486, mifepristone]
[2]
  mode of GR repression / antagonism: competitive antagonist
  repression of Dex-induced GR transactivation in the presence of LeTx: fully repressed; also recorded: fully repress
[4]
  competition with [3H] dexamethasone for binding to GR: can compete
J774.1 cells
  effect of pretreatment on LeTx toxicity: does not prevent LeTx toxicity
Raw264.7 cells
  effect of pretreatment on LeTx toxicity: does not prevent LeTx toxicity
[5]
  repression of progesterone-induced PR-B transactivation in the presence of LeTx: fully repress

## C[S+]([O-])c1ccc(-c2nc(-c3ccncc3)c(-c3ccc(F)cc3)[nH]2)cc1 (centres unmarked) [SB203580]
[2]
  GR/GRE-specific effect of MAPK pathway inhibitor on Dex-induced GR transactivation: has no effect on GR-mediated transactivation
[1]
  effect of MAPK inhibitor on dexamethasone-induced TAT activity: repress dexamethasone-induced TAT activity

## Nc1nccc(-c2c(-c3ccc(F)cc3)ncn2C2CCNCC2)n1 [SB220025]
[1]
  effect of MAPK inhibitor on dexamethasone-induced TAT activity: repress dexamethasone-induced TAT activity

## COc1ccc(C2CNC(=O)C2)cc1OC1CCCC1 (centres unmarked) [rolipram]
[1]
  effect on LeTx repression of dexamethasone-induced TAT activity: does not prevent LeTx repression
Raw264.7 cells
  effect of rolipram on LeTx toxicity: does not prevent LeTx toxicity
